# Assay results reported in PubChem BioAssay AID179 (DTP/NCI, 2004).
# “And” between values parts separate entries of the source, which are not always exact repeats. Identical values can stand only once. The source made the active and inactive calls.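 The calls were made as follows: active = compounds giving half or more protection of infected cells from virus-caused growth loss, again on retest; inactive = the rest.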 Where a SMILES comes first, the peptide text is derived from it. The star is where a group is joined. Cbz = O=C(OCc1ccccc1)*; Bn = c1ccc(C*)cc1
# System: CEM cells HIV-1 protection, formazan growth assay
# Assay: NCI AIDS Antiviral Assay
# Conditions: for IC50: measured here: growth of uninfected CEM cells
# Method in brief: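 Human CEM cells, uninfected and HIV-1-infected, exposed to five drug concentrations; growth measured by soluble formazan assay and scored as percent protection from infection, with protecting compounds retested.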
Structure (SMILES),EC50,IC50,outcome
COC(=O)C(Cc1ccc(O)cc1)NC(=O)C(COCc1ccccc1)NC(=O)OCc1ccccc1 (stereo not drawn) (Cbz-Ser(Bn)-Tyr-OMe; configuration not given here),> 200 µM,30.2 µM,
CC(C)CC(NC(=O)C(Cc1ccc(O)cc1)NC(=O)CNC(=O)C(N)CCC(=O)O)C(=O)NC(Cc1c[nH]c2ccccc12)C(=O)O (stereo not drawn) (H-EGYLW-OH; configuration not given here),,,inactive
C=C(C)COC1CCCCO1 (stereo not drawn),> 200 µM,38 µM,
O=C(NS(=O)(=O)Nc1ccccc1)OCc1ccccc1,> 200 µM,> 200 µM,
Cc1c(CN2CCCC2)c(O)c2c(=O)c3c(O)c(CN4CCCC4)c(O)c4c5c(O)c(CN6CCCC6)c(O)c6c(=O)c7c(O)c(CN8CCCC8)c(C)c8c1c2c(c34)c(c78)c65,> 17.8 µM,> 17.8 µM,
COc1ccc(C2CC(c3c(O)ccc4ccccc34)=NN2)cc1OC (stereo not drawn),> 200 µM,5.5 µM,
O=C(/C=C/c1ccc(Cl)cc1)c1ccc(Cl)c(Cl)c1,> 32.4 µM,> 32.4 µM,
CC1(C)CC(=O)C2=C(C1)OC1=C(C(=O)CC(C)(C)C1)C2CC(c1ccccc1)c1ccc(O)c(O)c1O (stereo not drawn),> 200 µM,8.51 µM,
COc1ccc2nc3c([N+](=O)[O-])ccc(NCCN(C)C)c3c(N)c2c1,> 200 µM,0.794 µM,
CC(C)C12C=C3CCC4C(C)(C(=O)O)CCCC4(C)C3(CC1)OO2 (stereo not drawn),> 741 µM,162 µM,
Oc1ccc([C@H]2Oc3c(ccc(O)c3O)[C@@H](O)[C@H]2O)cc1O,> 200 µM,29.5 µM,
c1ccc2c(c1)nnn2CNc1ccc(N2CCOCC2)cc1,> 200 µM,51.3 µM,
Cc1cc(Cl)ccc1NC(=O)C1C(=O)N(c2ccc(Cl)cc2C)C(=O)/C1=N\N (stereo not drawn),,,inactive
COc1cc(OC)c2c(c1)C(=O)c1ccccc1C2=O,,,inactive
CCn1c2ccccc2c2ccc3c(c21)C(=O)C=CC3=O,> 26.3 µM,> 26.3 µM,
CCOP(=O)(O)C1C(CO)OC(n2ccc(=O)[nH]c2=O)C1O (stereo not drawn),> 200 µM,> 200 µM,
O=C(CC(=O)c1cccc2ccccc12)C(=O)NC1C2CC3CC(C2)CC1C3 (stereo not drawn),,,inactive

Structure (SMILES),EC50,IC50,outcome
Cc1csc2[nH]c3ccccc3[n+]12,,,inactive
S=c1nc(COc2ccc(Cl)cc2Cl)[nH][nH]1,> 67.6 µM,51.3 µM,
S=C(Nc1ccc2cn[nH]c2c1)Nc1ccc2cn[nH]c2c1,> 309 µM,129 µM,
CN(C)P(=O)(N(C)C)N(C)C,> 200 µM,> 200 µM,
CC1(c2nc3ccccc3[nH]2)CCC(C(N)=O)C(C)(C)O1 (stereo not drawn),> 200 µM,> 200 µM,
O=C(O)c1cccc(C(=O)O)c1-c1c(C(=O)O)cccc1C(=O)O,> 200 µM,> 200 µM,
COc1ccc(NS(=O)C2CCCCC2)cc1 (stereo not drawn),> 200 µM,> 200 µM,
CCc1cccc(C)c1NC(=O)C1=C(C)NC(C)=C(C(=O)Nc2c(C)cccc2CC)C1c1ccc([N+](=O)[O-])cc1,> 12.9 µM,> 12.9 µM,
C=C1CN(S(=O)(=O)c2ccc(C)cc2)CCCN(CC2CC2)CCCN(S(=O)(=O)c2ccc(C)cc2)C1,> 200 µM,4.27 µM,
Cc1ccc(S(=O)(=O)NN=C2C(C)(C)CC2(C)C)cc1,> 200 µM,> 200 µM,
CN1CCC2(CC1)C(=NC1CCCCC1)NC(=O)N2c1ccccc1,> 200 µM,> 200 µM,
CCN(CC)C(=O)Cn1c(-c2ccccc2)cc2ccccc21,> 200 µM,40.7 µM,
CCNc1c(C(=O)N(CC)CC)c(=O)[nH]c2ncccc12,> 871 µM,> 871 µM,
COC1N(C2CC(N=[N+]=[N-])C(CO)O2)C(=O)NC(=O)C1(C)Br (stereo not drawn),0.00479 µM and 0.00263 µM and 0.0049 µM,40.7 µM and 38.9 µM and 16.2 µM,
O=[N+]([O-])c1ccccc1N=Cc1ccccc1O,> 200 µM,> 200 µM,
Clc1ccc(CSc2nnc(SCc3ccc(Cl)c(Cl)c3)c3[nH]cnc23)cc1Cl,> 200 µM,12.6 µM,
FC(F)(F)c1ccc2nc(NCc3ccccc3)c(-c3ccccc3)nc2c1,> 19.1 µM,> 19.1 µM,
